row,Compound,melting point
1,CCCc1c(OCCCOc2ccc3c(c2CCC)OC(C)(CCC(=O)N(C)CC(=O)OCC)CC3=O)ccc(C(C)=O)c1O (stereo not given),101 to 102 °C
2,CCOC(=O)C(O)CCn1cnc2c(Cl)nc(N)nc21 (stereo not given),163 to 164 °C
3,FC(F)(F)c1nnc2sc3ccccc3n12,140 to 141 °C
4,COCOc1cc(Cl)ccc1-c1cc(-c2cccc(C(=O)NCC3CCCCN3C(=O)OC(C)(C)C)c2)c(C#N)c(NC(=O)c2ccco2)n1 (stereo not given),133 to 136 °C
5,CCCc1nc2c(N)nc(C)c(C)c2n1CCCCCS(=O)(=O)c1ccc(C(F)(F)F)cc1,172 to 174 °C
6,Cc1ncsc1C(C)(O)c1ccsc1 (stereo not given),149 to 151 °C
7,COc1ccc2c(c1)C(n1cc[nH]c1=S)CCC2 (stereo not given),142 to 143 °C
8,COc1ccc(O)c(Cl)c1O,69 to 70 °C
9,COc1cc(N)c(Cl)cc1C(=O)NCC1CCN(CCCCCCOc2ccccc2)CC1,113 to 115 °C
10,CC(C)Cc1cc(C(N)=O)nn1C,118 to 120 °C
11,Nc1ccsc1C(=O)NCC1CCN(CC2COc3ccccc3O2)CC1 (stereo not given),144 to 146 °C
12,O=C1N(Cc2ncccc2C(F)F)c2ccccc2C12COc1cc3c(cc12)OCCO3 (stereo not given),181 to 182 °C
13,Cc1nc(C(F)(F)F)ccc1C(=O)C1=C(Sc2ccc(Cl)cc2)C2CCC(C2)C1=O (stereo not given),130 to 131 °C
14,O=C1CCC(N2Cc3c(OCc4cccc(CN5CCC(c6ccc(Cl)cc6)CC5)c4)cccc3C2=O)C(=O)N1 (stereo not given),180 to 182 °C
15,Cc1ccc([N+](=O)[O-])c(C#N)c1,90 to 91 °C
16,O=c1c2c(c1=O)NCCCN2,335 °C
17,COc1cccc2c(Nc3ccccc3C)nc(N3CCCC3)nc12,181 to 183 °C
18,CCc1c2c(c(C)c(C)c1N1CCN(c3ccc(OC)cc3)CC1)OC(C)(C)C2,150 to 151 °C
19,NC(=S)NN=C(CCC(=O)NC1CCCCC1)c1ccccc1,89 to 92 °C
20,COc1ccc(/C=C/c2nc3c(c(=O)n(C)c(=O)n3C)n2C)c(C)c1C,> 275 °C
21,Cc1c2c(c(C)c3c1NCC3)OC(C)(C)C2,105 to 107 °C
22,COc1ccc(Sc2c(O)c3c(Cl)cc(Cl)cc3[nH]c2=O)cc1,280 to 282 °C
23,CCS(=O)c1ccc(-c2coc3ccc(-c4nnc(C)o4)cc23)c(Cl)c1 (stereo not given),151 to 152 °C
24,C#CCOc1cc(-n2nc(CCC=C)[nH]c2=O)c(Cl)cc1Cl,150 to 151 °C
25,CN(C=O)c1cc(F)ccc1C(=O)CS(C)(=O)=O,94.5 to 95.5 °C

# Continued, values first:
row,melting point,Compound
1,218 to 219 °C,C=CCSc1cc(C(=O)O)cc(S(N)(=O)=O)c1Oc1ccccc1
2,138 to 141 °C,CCCc1c(C(=O)N(C)Cc2ccc3cc(O)ccc3c2)cnn1-c1ccccc1
3,95 to 97 °C,CC[C@@H](c1ccccc1)N(Cc1ccc(C(=O)O)c(F)c1)S(=O)(=O)c1ccc(Cl)cc1
4,139 to 142 °C,CC(CCn1cnc2ccccc21)NCC(O)COc1ccc(CC(N)=O)cc1 (stereo not given)
5,139 to 142 °C,COc1ccccc1N1CCN(CNC(=O)c2cccc(C)c2)CC1
6,203 to 204 °C,COc1cccc(CNC(=O)c2[nH]c3ccc(Cl)cc3c2S(=O)(=O)c2ccccc2)c1
7,234 to 235 °C,O=C(NCc1ccc(Cl)cc1)c1cnc2c(F)cc(/C=C\CO)cc2c1O
8,182 to 185 °C,COc1ccc(C(CC(=O)O)N2C(=O)c3cc(Cl)c(Cl)cc3C2=O)cc1 (stereo not given)
9,128 to 129 °C,CNC(=O)C(=NOC)c1ccccc1C#Cc1ccccc1C
10,192 to 195 °C,N=C(Nc1ccc(Cl)cc1)Nc1ncccc1OCc1c(Cl)cccc1Cl
11,110 to 111 °C,CCn1c(SCc2ccccn2)nc2ccccc2c1=O
12,192 to 193 °C,CN(C(=O)c1cccs1)c1cccc(-c2nc(=O)c3ccccc3s2)n1
13,203 to 204 °C,COc1c(O)cc2oc(-c3ccccc3)cc(=O)c2c1O
14,303 to 317 °C,Cc1[nH]cc2c(=O)n(-c3ccc(F)cc3)nc-2c1-c1ccccc1
15,65 to 66 °C,ClCCCOc1ccc(-c2ccccc2)cc1

# Reference: a melting point compilation (Tetko et al.; mined from patent text by program, amines drawn as free bases though some values may be those of a salt)
